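Assay format: 96-well plates, 48-hour exposure. At the GI50, growth is halved.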 Active and inactive are the calls of the source. No stated cut-off is given here; in the data, active = GI50 up to about 1.1 µM and inactive = higher.
Experiments:
Assay in all cases: NCI-60 cell line screen, 48 h
BT-549 = system: BT-549
NCI-H522 = system: NCI-H522
HCT-15 = system: HCT-15
SR = system: SR
CAKI-1 = system: CAKI-1
SF-295 = system: SF-295
NCI-H226 = system: NCI-H226
SW-620 = system: SW-620
NCI/ADR-RES = system: NCI/ADR-RES
OVCAR-5 = system: OVCAR-5
OVCAR-8 = system: OVCAR-8
ACHN = system: ACHN
HCT-116 = system: HCT-116
EKVX = system: EKVX
HOP-92 = system: HOP-92
PC-3 = system: PC-3
MDA-N = system: MDA-N
MDA-MB-435 = system: MDA-MB-435
SNB-75 = system: SNB-75

## O=C1/C(=C/c2ccc(Cl)cc2)CSC/C1=C\c1ccc(Cl)cc1
BT-549
  GI50: 2.21 µM (inactive)
NCI-H522
  GI50: 4.99 µM (inactive)
HCT-15
  GI50: 13.9 µM
SR
  GI50: 2.69 µM (inactive)
CAKI-1
  GI50: 4.06 µM (inactive)
SF-295
  GI50: 1.71 µM (inactive)
NCI-H226
  GI50: 2.2 µM (inactive)
SW-620
  GI50: 3.15 µM (inactive)
NCI/ADR-RES
  GI50: 6.27 µM (inactive)
OVCAR-5
  GI50: 2.19 µM (inactive)
OVCAR-8
  GI50: 3.54 µM (inactive)
ACHN
  GI50: 3.8 µM (inactive)
HCT-116
  GI50: 1.76 µM (inactive)
EKVX
  GI50: 22.9 µM (inactive)
HOP-92
  GI50: 21.2 µM (inactive)
PC-3
  GI50: 3.52 µM (inactive)
MDA-N
  GI50: 3.06 µM (inactive)

## N#Cc1c(NC(=S)Nc2ccccc2)sc2c1CCCC2
BT-549
  GI50: > 100 µM (inactive)
NCI-H522
  GI50: > 100 µM (inactive)
HCT-15
  GI50: > 100 µM
SR
  GI50: > 100 µM (inactive)
CAKI-1
  GI50: > 100 µM (inactive)
SF-295
  GI50: > 100 µM (inactive)
NCI-H226
  GI50: > 100 µM (inactive)
SW-620
  GI50: > 100 µM (inactive)
MDA-MB-435
  GI50: > 100 µM (inactive)
NCI/ADR-RES
  GI50: > 100 µM (inactive)
SNB-75
  GI50: > 100 µM (inactive)
OVCAR-5
  GI50: > 100 µM (inactive)
OVCAR-8
  GI50: > 100 µM (inactive)
ACHN
  GI50: > 100 µM (inactive)
HCT-116
  GI50: > 100 µM (inactive)
EKVX
  GI50: > 100 µM (inactive)
PC-3
  GI50: > 100 µM (inactive)
MDA-N
  GI50: > 100 µM (inactive)

## COc1cc(C)c(S(=O)(=O)N(CCCN)OCCCN)c(C)c1C
BT-549
  GI50: 26.6 µM (inactive)
NCI-H522
  GI50: 22 µM (inactive)
HCT-15
  GI50: > 100 µM
SR
  GI50: 17.6 µM (inactive)
CAKI-1
  GI50: > 100 µM (inactive)
SF-295
  GI50: 31.3 µM (inactive)
NCI-H226
  GI50: > 100 µM (inactive)
SW-620
  GI50: 46.1 µM (inactive)
MDA-MB-435
  GI50: 38.9 µM (inactive)
NCI/ADR-RES
  GI50: > 100 µM (inactive)
SNB-75
  GI50: 34.2 µM (inactive)
OVCAR-5
  GI50: 85.5 µM (inactive)
OVCAR-8
  GI50: 38.5 µM (inactive)
ACHN
  GI50: 49.4 µM (inactive)
HCT-116
  GI50: 29.6 µM (inactive)
EKVX
  GI50: 31.8 µM (inactive)
PC-3
  GI50: 25.4 µM (inactive)
MDA-N
  GI50: 36.9 µM (inactive)

## S=C(/N=c1/sc(Nc2ccccc2)nc2sc3c(c12)CCCC3)Nc1ccccc1
BT-549
  GI50: > 62.5 µM (inactive)
NCI-H522
  GI50: > 62.5 µM (inactive)
HCT-15
  GI50: > 62.5 µM
SR
  GI50: > 62.5 µM (inactive)
CAKI-1
  GI50: > 62.5 µM (inactive)
NCI-H226
  GI50: > 62.5 µM (inactive)
SW-620
  GI50: > 62.5 µM (inactive)
MDA-MB-435
  GI50: > 62.5 µM (inactive)
OVCAR-5
  GI50: > 62.5 µM (inactive)
ACHN
  GI50: > 62.5 µM (inactive)
HCT-116
  GI50: > 62.5 µM (inactive)
EKVX
  GI50: > 62.5 µM (inactive)
HOP-92
  GI50: > 62.5 µM (inactive)
PC-3
  GI50: > 62.5 µM (inactive)
MDA-N
  GI50: > 62.5 µM (inactive)

## CCCCCCC(=O)OC[n+]1cccc(-c2c(COC(=O)NC(C)C)c(COC(=O)NC(C)C)c3n2CCC3)c1
BT-549
  GI50: 37.8 µM (inactive)
NCI-H522
  GI50: 22.6 µM (inactive)
HCT-15
  GI50: 42.6 µM
CAKI-1
  GI50: 11 µM (inactive)
SF-295
  GI50: > 62.2 µM (inactive)
NCI-H226
  GI50: 60.7 µM (inactive)
SW-620
  GI50: 28.4 µM (inactive)
MDA-MB-435
  GI50: 70.8 µM (inactive)
NCI/ADR-RES
  GI50: 32.4 µM (inactive)
SNB-75
  GI50: 35.4 µM (inactive)
OVCAR-5
  GI50: > 58.9 µM (inactive)
OVCAR-8
  GI50: 34.4 µM (inactive)
ACHN
  GI50: 21.4 µM (inactive)
HCT-116
  GI50: 32.8 µM (inactive)
EKVX
  GI50: > 100 µM (inactive)
HOP-92
  GI50: 24.9 µM (inactive)
PC-3
  GI50: > 56.8 µM (inactive)
MDA-N
  GI50: > 95.3 µM (inactive)

## O=C1/C(=C/c2cccc(Br)c2)CSC/C1=C\c1cccc(Br)c1
BT-549
  GI50: 2.13 µM (inactive)
NCI-H522
  GI50: 1.87 µM (inactive)
HCT-15
  GI50: 2.51 µM
SR
  GI50: 2 µM (inactive)
CAKI-1
  GI50: 2.47 µM (inactive)
SF-295
  GI50: 2.24 µM (inactive)
NCI-H226
  GI50: 3.72 µM (inactive)
SW-620
  GI50: 2.73 µM (inactive)
NCI/ADR-RES
  GI50: 2.34 µM (inactive)
OVCAR-5
  GI50: 4.88 µM (inactive)
OVCAR-8
  GI50: 1.9 µM (inactive)
ACHN
  GI50: 2.87 µM (inactive)
HCT-116
  GI50: 1.78 µM (inactive)
EKVX
  GI50: 5.68 µM (inactive)
HOP-92
  GI50: 3.36 µM (inactive)
PC-3
  GI50: 2.5 µM (inactive)
MDA-N
  GI50: 2.65 µM (inactive)

## Nc1nc2cc3nc(N)c(N)nc3cc2nc1N
BT-549
  GI50: > 100 µM (inactive)
NCI-H522
  GI50: > 100 µM (inactive)
HCT-15
  GI50: > 100 µM
SR
  GI50: 71.8 µM (inactive)
CAKI-1
  GI50: > 100 µM (inactive)
SF-295
  GI50: > 100 µM (inactive)
NCI-H226
  GI50: > 100 µM (inactive)
SW-620
  GI50: > 100 µM (inactive)
MDA-MB-435
  GI50: > 100 µM (inactive)
NCI/ADR-RES
  GI50: > 100 µM (inactive)
SNB-75
  GI50: > 100 µM (inactive)
OVCAR-5
  GI50: > 100 µM (inactive)
OVCAR-8
  GI50: > 100 µM (inactive)
ACHN
  GI50: > 100 µM (inactive)
HCT-116
  GI50: 84.3 µM (inactive)
EKVX
  GI50: > 100 µM (inactive)
PC-3
  GI50: > 100 µM (inactive)
MDA-N
  GI50: > 100 µM (inactive)

## O=C1C(Cl)=C(NCCN2CCOCC2)C(=O)c2ncccc21
BT-549
  GI50: 1.79 µM (inactive)
HCT-15
  GI50: 1.91 µM
SF-295
  GI50: 1.82 µM (inactive)
NCI-H226
  GI50: 2.1 µM (inactive)
SW-620
  GI50: 1.85 µM (inactive)
MDA-MB-435
  GI50: 0.195 µM (active)
SNB-75
  GI50: 1.35 µM (inactive)
OVCAR-5
  GI50: 2.15 µM (inactive)
OVCAR-8
  GI50: 1.53 µM (inactive)
ACHN
  GI50: 2.82 µM (inactive)
HCT-116
  GI50: 1.82 µM (inactive)
EKVX
  GI50: 1.75 µM (inactive)
HOP-92
  GI50: 2.25 µM (inactive)
PC-3
  GI50: 2.59 µM (inactive)
MDA-N
  GI50: 0.2 µM (active)

Source: ChEMBL document CHEMBL1201862, “PubChem BioAssay data set” (2004)
